According to US9090596B2, “Disubstituted 3,4-diamino-3-cyclobutene-1,2-dione compounds for use in the treatment of chemokine-mediated pathologies” (GALDERMA RESEARCH & DEVELOPMENT, priority 2011, dated 2015):
pIC50: −log10 of the molar value.

Tests used:
[1] = target: CXCR1 receptor (Homo sapiens (Human), UniProt P25024); assay: β-arrestin 2 recruitment test, U2OS hCXCR1 β-arrestin cells stimulated with CXCL8; type: cell-based; settings: CXCL8 stimulation
Method: (§1) The in vitro affinity of the compounds of the present invention for the CXCR1 and CXCR2 receptors was determined on a functional test of the β-arrestin recruitment type after receptor activation.
(§2) β-Arrestin Recruitment Assay:
(§3) “PathHunter HEK293-CXCR2” or “U2OS hCXCR1 β-arrestin” cells (DiscoveRx Corporation) were seeded overnight at 10 000 cells/well (384-well format) in 20 μl of Opti MEM I medium. A preincubation with the antagonist or the vehicle for 30 min at 37° C. and 5% CO2 was followed by 60 minutes of stimulation with CXCL8 at 37° C. and 5% CO2. The cells were then placed at ambient temperature for 30 minutes. The PathHunter detection reagent (DiscoveRx Corporation) was added. […] The data were analyzed by means of a non-linear curve procedure using the XLFit4 exploitation software (IDBS) and the IC50 values were determined.

[2] = target: CXCR2 receptor (Homo sapiens (Human), UniProt P25025); assay: β-arrestin 2 recruitment test, PathHunter HEK293-CXCR2 cells stimulated with CXCL8; type: cell-based; settings: CXCL8 stimulation
Method: as §1, §2, §3

[3] = target: CCR4 (Homo sapiens (Human), UniProt P51679); assay: Receptor profiling: calcium flux (FLIPR TETRA) on Chem-1 cells expressing chemokine receptor; type: cell-based; set-up: key to IC50 CCR4: IA: Inactive; settings: antagonist activity, reference agonist at AC80
Method: (§4) Measurement of Calcium Flux on Cells:
(§5) The experiments were carried out on the FLIPR TETRA® platform from Molecular Devices. After the basal level had been read, the compounds were added to the cells expressing the chemokine receptor of interest and the agonist activity was read at 10 seconds.
(§6) Each cell line expressing a chemokine receptor was established on the basis of the Chem-1 cell stably expressing the recombinant form of the chemokine receptor and also an associated G protein, with the aim of coupling the receptor to the calcium signalling pathway. 21 receptors belonging to the chemokine receptor family (CCRs and CXCRs) were analyzed. All the CXCR2 antagonists were tested in a dose-dependent manner and the concentration corresponding to 50% inhibition of the response was determined (IC50).

[4] = target: CXCR3 (Homo sapiens (Human), UniProt P49682); assay: as above; type: cell-based; settings: antagonist activity, reference agonist at AC80
Method: as §4, §5, §6

[5] = Metabolic stabilities in hepatic microsomes; type: in vitro ADME; settings: pH 7.4; hepatic microsomes 0.5 mg/ml, compound 1 μM; read-out: Half-life time
Method: Hepatic microsomes (Becton Dickinson) were incubated at a protein concentration of 0.5 mg/ml in the reaction medium.
The reaction medium of the microsomes was composed of phosphate buffer, pH: 7.4 at 100 mM, of MgCl2 at 100 mM (50/50), of an […] composed of a mixture of […] (NADP) and of glucose-6-phosphate (G6P) at 1 mg/ml and of glucose-6-phosphate dehydroganase (G6PDH) at 4 U/ml. The compounds were tested at 1 μM (0.1% DMSO).
The samples of incubation medium after addition of the microsomes were taken at times 5, 10, 15, 30 and 60 minutes. At each time, the metabolic reaction was stopped by adding methanol (1 volume incubation medium/3 volumes of methanol). The disappearance of the parent product was measured by LC/MS/MS analysis. The time for which 50% of parent Product disappeared (T½) was calculated from the kinetics of disappearance of the parent product as a function of time.

[6] = Metabolic stabilities in hepatocytes; type: in vitro ADME; settings: human hepatocytes, compound 1 μM; read-out: Half-life time
Method: The human hepatocytes were supplied by Biopredic in 24-well plates.
At each time, the metabolic reaction was stopped by adding methanol (1 volume incubation medium/3 volumes of methanol). The disappearance of the parent product was measured by LC/MS/MS analysis. The time for which 50% (T½) of parent product disappeared was calculated from the kinetics of disappearance of the parent product as a function of time.

[7] = tested on: receptors of CXCR1 and CXCR2 type; settings: pseudo-irreversible dissociation, JPET 322:477-485, 2007; cited from earlier work

Chain of CXCR2 receptor (P25025 whole entry): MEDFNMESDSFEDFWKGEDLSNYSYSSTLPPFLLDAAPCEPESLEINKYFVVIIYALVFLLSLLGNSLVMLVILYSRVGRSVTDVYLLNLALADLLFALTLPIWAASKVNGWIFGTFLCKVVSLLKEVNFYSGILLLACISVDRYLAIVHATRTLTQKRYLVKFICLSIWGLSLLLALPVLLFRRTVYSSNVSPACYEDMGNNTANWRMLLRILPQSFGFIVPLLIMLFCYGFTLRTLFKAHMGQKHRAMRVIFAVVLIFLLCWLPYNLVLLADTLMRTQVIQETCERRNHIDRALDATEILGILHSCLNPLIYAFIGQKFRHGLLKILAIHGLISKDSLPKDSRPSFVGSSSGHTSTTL
Chain of CXCR1 receptor (P25024 whole entry): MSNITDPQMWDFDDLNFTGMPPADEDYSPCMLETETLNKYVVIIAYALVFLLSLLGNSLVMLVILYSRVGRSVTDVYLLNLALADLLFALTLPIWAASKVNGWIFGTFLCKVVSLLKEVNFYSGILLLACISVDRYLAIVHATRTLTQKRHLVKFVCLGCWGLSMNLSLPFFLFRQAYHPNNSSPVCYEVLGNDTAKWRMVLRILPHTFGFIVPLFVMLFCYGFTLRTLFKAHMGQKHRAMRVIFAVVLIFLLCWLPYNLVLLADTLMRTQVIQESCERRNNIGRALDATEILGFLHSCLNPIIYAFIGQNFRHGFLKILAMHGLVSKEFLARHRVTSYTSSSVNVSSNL
Chain of CXCR3 (P49682 whole entry): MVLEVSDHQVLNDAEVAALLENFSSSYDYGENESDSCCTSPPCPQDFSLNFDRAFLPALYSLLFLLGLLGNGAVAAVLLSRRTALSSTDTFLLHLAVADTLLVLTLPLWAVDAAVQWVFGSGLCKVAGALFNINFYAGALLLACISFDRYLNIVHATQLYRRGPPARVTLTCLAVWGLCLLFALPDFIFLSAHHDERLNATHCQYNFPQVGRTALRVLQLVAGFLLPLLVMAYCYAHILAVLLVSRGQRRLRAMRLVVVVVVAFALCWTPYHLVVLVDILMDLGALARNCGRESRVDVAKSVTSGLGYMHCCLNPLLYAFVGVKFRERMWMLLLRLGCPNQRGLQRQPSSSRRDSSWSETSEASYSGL
Chain of CCR4 (P51679 whole entry): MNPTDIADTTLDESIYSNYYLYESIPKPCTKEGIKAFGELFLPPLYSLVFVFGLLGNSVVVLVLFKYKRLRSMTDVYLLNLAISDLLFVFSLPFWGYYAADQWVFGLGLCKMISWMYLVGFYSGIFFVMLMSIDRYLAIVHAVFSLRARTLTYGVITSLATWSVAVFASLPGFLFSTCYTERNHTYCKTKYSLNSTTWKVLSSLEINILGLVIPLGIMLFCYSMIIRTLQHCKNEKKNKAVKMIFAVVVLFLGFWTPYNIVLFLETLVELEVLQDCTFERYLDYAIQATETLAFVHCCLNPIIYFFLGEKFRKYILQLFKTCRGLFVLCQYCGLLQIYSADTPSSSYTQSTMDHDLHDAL

| SMILES | melting point | pIC50 [1] | pIC50 [2] | further results |
| --- | --- | --- | --- | --- |
| Cc1ccc(C(Nc2c(Nc3cccc(C(=O)N(C)C)c3O)c(=O)c2=O)C2(CF)COC2)o1 (centres unmarked) [Example 2, 3-(2-{[(3-fluoromethyloxetan-3-yl)-(5-methyl-furan-2-yl)methyl}amino]-3,4-dioxocyclobut-1-enylamino)-2-hydroxy-N,N-dimethylbenzamide] | 186 to 188 °C | 5.80 | 6.57 | – |
| Cc1ccc(C(Nc2c(Nc3cccc(C(=O)N4CCC[C@@H]4C(=O)OC(C)(C)C)c3O)c(=O)c2=O)C2(C)COC2)o1 (stereo partly drawn) [Example 7, (R)-1-[2-hydroxy-3-(2-{[(5-methylfuran-2-yl)-(3-methyloxetan-3-yl)methyl]amino}-3,4-dioxocyclobut-1-enylamino)benzoyl]pyrrolidine-2-carboxylic acid tert-butyl ester] | 162 to 164 °C | 5.62 | 7.00 | – |
| COC(=O)[C@H]1CCCN1C(=O)c1cccc(Nc2c(N[C@@H](c3ccc(C)o3)C3(C)COC3)c(=O)c2=O)c1O [Example 8, methyl (R)-1-[2-hydroxy-3-(2-{[(R)-(5-methylfuran-2-yl)-(3-methyloxetan-3-yl)methyl]amino}-3,4-dioxocyclobut-1-enylamino)benzoyl]pyrrolidine-2-carboxylate] | – | 6.22 | 7.43 | IC50 CCR4 [3]: IA; pIC50 [4]: 6.62 |
| Cc1ccc(C(Nc2c(Nc3cccc(C(C)O)c3O)c(=O)c2=O)C2(C)COC2)o1 (centres unmarked) [Example 11, 3-[2-hydroxy-3-(1-hydroxyethyl)phenylamino]-4-{[(5-methylfuran-2-yl)-(3-methyloxetan-3-yl)methyl]amino}cyclobut-3-ene-1,2-dione] | 129 to 131 °C | 5.19 | 6.26 | – |
| Cc1ccc(C(Nc2c(Nc3cccc(S(=O)(=O)N(C)C)c3O)c(=O)c2=O)C2(C)COC2)o1 (centres unmarked) [Example 21, 2-hydroxy-N,N-dimethyl-3-(2-{[(5-methylfuran-2-yl)-(3-methyloxetan-3-yl)methyl]amino}-3,4-dioxocyclobut-1-enylamino)benzenesulfonamide] | – | 5.84 | 6.59 | half-life at 1 μM [5]: 7.7 min |
| Cc1ccc(C(Nc2c(Nc3cccc(C(=O)N(C)C)c3O)c(=O)c2=O)C2(C)CN(C(=O)OC(C)(C)C)C2)o1 (centres unmarked) [Example 26, tert-butyl 3-[[2-(3-dimethylcarbamoyl-2-hydroxyphenylamino)-3,4-dioxo-cyclobut-1-enylamino]-(5-methylfuran-2-yl)methyl]-3-methylazetidine-1-carboxylate] | 162 to 165 °C | – | – | – |
| Cc1cc(C(Nc2c(Nc3cccc(C(=O)N(C)C)c3O)c(=O)c2=O)C2(C)COC2)oc1C (centres unmarked) [Example 27, 3-(2-{[(4,5-dimethylfuran-2-yl)-(3-methyloxetan-3-yl)methyl]amino}-3,4-dioxocyclobut-1-enylamino)-2-hydroxy-N,N-dimethylbenzamide] | 207 to 209 °C | 5.81 | 6.61 | – |
| Cc1ccc(C(Nc2c(Nc3cccc(C(=O)N4CCC(O)C4)c3)c(=O)c2=O)C2(C)COC2)o1 (centres unmarked) [Example 31, 3-[3-(3-hydroxypyrrolidine-1-carbonyl)phenylamino]-4-{[(5-methylfuran-2-yl)-(3-methyloxetan-3-yl)methyl]amino}cyclobut-3-ene-1,2-dione] | 242 to 245 °C | 5.45 | 6.15 | – |
| COC(=O)[C@@H]1CCCN1C(=O)c1cccc(Nc2c(NC(c3ccc(C)o3)C3(C)COC3)c(=O)c2=O)c1Cl (stereo partly drawn) [Example 46, methyl (S)-1-[2-chloro-3-(2-{[(5-methylfuran-2-yl)-(3-methyloxetan-3-yl)methyl]amino}-3,4-dioxocyclobut-1-enylamino)benzoyl]pyrrolidine-2-carboxylate] | 148 to 158 °C | – | – | – |
| Cc1ccc([C@H](Nc2c(Nc3cccc(C(=O)N(C)C)c3O)c(=O)c2=O)C2(C)COC2)o1 [Example 50, 2-hydroxy-N,N-dimethyl-3-(2-{[((R)-5-methylfuran-2-yl)-(3-methyloxetan-3-yl)methyl]amino}-3,4-dioxocyclobut-1-enylamino)benzamide] | – | – | – | pIC50 [4]: 6.15 |
| Cc1ccc([C@H](Nc2c(Nc3ccc(Cl)c(S(=O)(=O)N4CCN(C)CC4)c3O)c(=O)c2=O)C2(C)COC2)o1 [Example 53, 3-[4-chloro-2-hydroxy-3-(4-methylpiperazine-1-sulfonyl)phenylamino]-4-{[(R)-(5-methylfuran-2-yl)-(3-methyloxetan-3-yl)methyl]amino}cyclobut-3-ene-1,2-dione] | – | 6.94 | 7.52 | pIC50 [3]: 6.35; pIC50 [4]: 6.04; half-life at 1 μM [6]: 186 min; half-life at 1 μM [5]: 47 min |
| CC[C@@H](Nc1c(Nc2cccc(C(=O)N(C)C)c2O)c(=O)c1=O)c1ccc(C)o1 [SCH-527123] | – | – | – | dissociation time [7]: about 22 h |
